Source: BigSolDB 2.1

CO[C@H]1/C=C/O[C@@]2(C)Oc3c(C)c(O)c4c(O)c(c(/C=N/N5CCN(C6CCCC6)CC5)c(O)c4c3C2=O)NC(=O)/C(C)=C\C=C\[C@H](C)[C@H](O)[C@@H](C)[C@@H](O)[C@@H](C)[C@H](OC(C)=O)[C@@H]1C
solubility (mole fraction)
Settings	278.15 K	283.15 K	288.15 K	293.15 K	297.15 K	303.15 K	308.15 K	313.15 K	318.15 K	323.15 K
in acetone	0.000523	0.00053	0.000536	0.000549	0.000563	0.000576	0.000609	0.000635	0.000668	0.000701
in chloroform	0.0254	0.0265	0.0281	0.0287	0.0293	0.0299	0.0308	0.0316	0.0326	0.0334
in dichloromethane	0.0159	0.0165	0.0175	0.0184	0.0196	0.0209	0.0224	–	–	–
in ethanol	0.000515	0.000525	0.000541	0.000562	0.000583	0.000604	0.000625	0.000651	0.000677	0.000703
in methanol	0.022	0.0224	0.0229	0.0235	0.0242	0.0249	0.0257	0.0267	0.0278	0.029
